{
  "source": "patent US20230165921A1",
  "about": "“USE OF DANDELION AND MONOMER COMPOUNDS THEREOF FOR KILLING MITES” (SMILEBIOTEK ZHUHAI LIMITED, priority 2020, published 2023)",
  "key": {"[1]": {"test_system": "Demodex mites", "experiment": "In-vitro culture of Demodex mites with traditional Chinese medicine decoctions: survival time", "parameters": "species or system D. folliculorum", "conditions": "20° C., humidity 96%", "procedure": "The detection of Demodex mites was performed according to the conventional method of eyelash microscopy (12,20). 3 eyelashes were collected from each eyelid, with a total of 12 eyelashes. The collected eyelashes were immediately placed on glass slides with three eyelashes on each glass slide, and the glass slides were examined under a common optical microscope for observation. Demodex mites in all periods were counted and classified according to morphology (specific standard: D. brevis with a head-to-body ratio of 1:1, and D. folliculorum with a head-to-body ratio of 1:3 to 1:4). […]\nOn the basis of the above detection of Demodex mites, 35 µL of the solutions was separately added to the slides, and the survival of the mites was observed every 2 hours. […] If the two operators gave different results, the survival status was determined independently by a third skilled operator. […]\n60 g of dried ready-to-use forms was weighed using an electronic balance, and soaked in water with an amount of 10 times (600 mL) in a marmite overnight. […]\n(§1) The in-vitro culture of the Demodex mites was conducted in an environment at a humidity of 96% and a temperature of 20° C. The survival of the Demodex mites was observed dynamically and the survival time was recorded."}, "[2]": {"test_system": "Demodex mites", "experiment": "Preliminary in-vitro screening of monomer compounds for effect on survival time of Demodex mites", "parameters": "species or system D. folliculorum", "conditions": "20° C., humidity 96%; for Survival time: in vitro, 35 µL monomer compound solution in 10% DMSO, mean ± SD; for in-vitro survival time of Demodex mites compared with the negative control group receiving 10% DMSO solution: in words", "procedure": "The powders of the monomer compounds shown in Table 2 were separately dissolved in dimethyl sulfoxide (DMSO), and then diluted with sterilized double-distilled water to make the final concentration of DMSO 10%, which could not shorten the survival time of Demodex mites as per a controlled study. The negative control group received DMSO mixed with sterilized water at a final concentration of 10%.\nAs in Example 1, 35 µL of each solution was added to a glass slide, and the survival of the mites was observed under an optical microscope every 2 hours. During the experiment, the Demodex mites were observed by two skilled operators separately for the activities (bodies, limbs and the like) through the microscope to determine whether they were dead or not. If the two operators gave different results, the survival status was determined independently by a third skilled operator. The in-vitro culture was conducted in a climatic chamber at a temperature of 20° C. and a humidity of 96%. During the observation, the glass slides were transported in a wet box to ensure the high humidity.\nIn this experiment, statistical analysis was conducted using SPSS22.0 statistical software, normality test was conducted using Shapiro-Wilk test, and homogeneity of variance test was conducted using Bartlett’s test.\nas §1, with “Effects of monomer compounds of traditional Chinese medicine on survival time of D. folliculorum The in-vitro” for “The in-vitro”"}},
  "note": "Entries after “also recorded” stand apart in the source; their conditions may differ.",
  "data": [
    {"smiles": "CC1=CCC(O)(C(C)C)CC1", "note": "(stereo not shown) [T4O, terpinen-4-ol]", "values": [
      {"measurement": "Survival time", "setting": "[1]; in vitro, 35 µL solution on slide, decoction 60 g in 100 mL, TTO and T4O 10% in sterilized water, mean ± SD", "value": "40.50 ± 13.12", "unit": "h"},
      {"measurement": "in-vitro survival time of Demodex mites compared with the negative control (sterilized water)", "setting": "[1]; in words", "value": "did not show significant differences"}
    ]},
    {"smiles": "C=C1CC[C@]2(C)CC[C@]3(C)[C@H](CC[C@@H]4[C@@]5(C)CC[C@H](OC(C)=O)C(C)(C)[C@@H]5CC[C@]43C)[C@H]2[C@@H]1C", "note": "[Taraxasterol acetate]", "values": [
      {"measurement": "Survival time", "setting": "[2]", "value": "37.91 ± 20.96", "unit": "h"},
      {"measurement": "in-vitro survival time of Demodex mites compared with the negative control group receiving 10% DMSO solution", "setting": "[2]", "value": "significantly shorter; also recorded: can significantly shorten the survival time of the mites"}
    ]},
    {"smiles": "O=C(O)/C=C/c1ccc(O)c(O)c1", "note": "[Caffeic acid]", "values": [
      {"measurement": "Survival time", "setting": "[2]", "value": "66.45 ± 24.24", "unit": "h"}
    ]},
    {"smiles": "COc1ccc(-c2cc(=O)c3c(O)cc(O)cc3o2)cc1O", "note": "[Diosmetin]", "values": [
      {"measurement": "in-vitro survival time of Demodex mites compared with the negative control group receiving 10% DMSO solution", "setting": "[2]", "value": "significantly shorter; also recorded: can significantly shorten the survival time of the mites"}
    ]},
    {"smiles": "CC1(C)CC[C@]2(C)CC=C3[C@]4(C)CC[C@H]5C(C)(C)[C@@H](O)CC[C@]5(C)[C@H]4CC[C@@]3(C)[C@@H]2C1", "note": "[Taraxerol]", "values": [
      {"measurement": "in-vitro survival time of Demodex mites compared with the negative control group receiving 10% DMSO solution", "setting": "[2]", "value": "significantly shorter; also recorded: can significantly shorten the survival time of the mites"}
    ]}
  ]
}
